Patent US20140357512A1, “HISTONE DEACETYLASE (HDAC) BIOMARKERS IN MULTIPLE MYELOMA” (priority 2013, published 2014)

System: human myeloma cell line MM.1S
Experiment: SILAC acetylated-lysine peptide profiling, HDAC inhibitor vs DMSO (light/heavy ratio)
Type: cell-based
Description: An embodiment of the invention comprises utilizing the SILAC method in order to quantitate changes in protein expression between two or more populations of cells. The SILAC method is a technique based on mass spectrometry that detects differences in protein abundance among samples using non-radioactive isotopic labeling. The SILAC method is known in the art, and described in detail in Ong et al., “Stable Isotope Labeling by Amino Acids in Cell Culture, SILAC, as a Simple and Accurate Approach to Expression Proteomics”, Molecular & Cellular Proteomics, vol. 1, pp. 376-386 (2002), which is incorporated herein by reference in its entirety.
Briefly, the SILAC method involves growing two populations of cells in cell culture. The first population of cells is grown in growth media containing normal amino acids (“normal media”). The second population of cells is grown in media lacking a standard essential amino acid (such as lysine), but is then supplemented with a non-radioactive, isotopically labeled form of that essential amino acid (such as lysine labeled with ^13C atoms, rather than normal ^12C atoms), which is called “heavy media”. When the two populations of cells are each growing in the medium, they incorporate the amino acids into all of their proteins. The growth of cells maintained in the heavy media is no different from that in normal media. All peptides containing the heavy amino acids are heavier than their normal counterparts. The cells from each of the two populations of cells are lysed. The lysates from each of the two cell populations are then combined. The combined cell lysates are then analyzed by mass spectrometry. Pairs of chemically identical peptides of different stable isotope composition can be differentiated in a mass spectrometer due to their difference in mass. The ratio of peak intensities in the mass spectrum for such peptide pairs reflects the abundance ratio for the two proteins.
This example describes SILAC studies that were performed to compare the effects of three different HDAC inhibitors (Compound A, Compound B, and tubastatin A) to a control on a human multiple myeloma cell line. The HDAC inhibitors were also compared amongst themselves to determine differences in their effects.
A human myeloma cell line MM.1S was grown using either ^12C (light) or ^13C (heavy) lysine containing culture medium. The “heavy” cells were treated with DMSO as the control, and the “light” cells were treated with a single HDAC inhibitor at 37° C. for 6 hours. The heavy and light cells were lysed, and the lysates were mixed in 1:1 ratio and digested with the protease trypsin. The acetylated lysine containing peptides (due to the action of the HDAC inhibitor) in the digested peptide pool were captured by a non-specific anti-acetylated lysine antibody cocktail (the antibodies identify both light and heavy acetylated peptides), and subjected to mass spectrometry analysis in order to identify thousands of individual peptides.
Thousands of peptides were identified in pairs (^12C and ^13C) due to their known mass differences. The amino acid sequence and quantitative ratio (Light/Heavy) of a given peptide in two differentially treated cell lysates were then determined and annotated with their possible protein (gene) sources.
As stated above, three HDAC inhibitors (Compound A, Compound B, and Tubastatin A) were used. Thus, the SILAC method was performed three times, with a different HDAC inhibitor compared to a control each time. Accordingly, there are three pairs of quantitative data in the table below, i.e., Compound A:DMSO, Compound B:DMSO, and Tubastatin A:DMSO. A cut-off of 1.30 fold of change (increase or decrease) was then used to determine “changed” or “+” in the table, and any peptides with a fold of change less than 1.3 fold were determined to be “unchanged” or “0” in the table. Those peptides that were not identified were marked as “NA” in the table. […]

O=C(NO)c1cnc(NC2(c3cccc(F)c3)CCCCC2)nc1 [Compound B, 2-((1-(3-fluorophenyl)cyclohexyl)amino)-N-hydroxypyrimidine-5-carboxamide]
light to heavy ratio (L/H ratio) of acetylated peptide, log 2 scale (FLNAENAQK(ac)FK (SEQ ID NO: 200), Ran-specific GTPase-activating protein [150], RANBP1): 0.00
light to heavy ratio (L/H ratio) of acetylated peptide, log 2 scale (FNQK(ac)GEVYK (SEQ ID NO: 149), Lipoamide acyltransferase component of branched-chain alpha-keto acid dehydrogenase complex mitochondrial [435], DBT): 0.00
light to heavy ratio (L/H ratio) of acetylated peptide, log 2 scale (FPHSAHQK(ac)YVR (SEQ ID NO: 253), Ribosomal protein L14 variant [71], RPL14): 0.00
L/H ratio of acetylated peptide (FQAK(ac)[…] (SEQ ID NO: 415), Microtubule-associated protein RP/EB family member 1 [66], MAPRE1): −1.00 log 2
light to heavy ratio (L/H ratio) of acetylated peptide, log 2 scale (FWNK(ac)FLENK (SEQ ID NO: 187), NADH dehydrogenase [ubiquinone] 1 beta subcomplex subunit 6 [49], NDUFB6): 0.00
light to heavy ratio (L/H ratio) of acetylated peptide AVDLIQK(ac)HK (SEQ ID NO: 546) (Flap endonuclease 1 [252], gene FEN1, inhibitor:DMSO): 0.00 log 2
light to heavy ratio (L/H ratio), log 2 scale, acetylated peptide GGVVGIK(ac)VDK (SEQ ID NO: 774) (Fructose-bisphosphate aldolase A [108], gene ALDOA, drug:DMSO): 0.00
L/H ratio of acetylated peptide ASGLAAGK(ac)GVIVAK (SEQ ID NO: 37) (GART [156], log 2 scale, drug vs DMSO): 0.00
light to heavy ratio (L/H ratio) of acetylated peptide, log 2 scale (GDASK(ac)EDIDTAMK (SEQ ID NO: 161), Isoform 1 of Hydroxyacyl-coenzyme A dehydrogenase mitochondrial [241], HADH): 0.00
light to heavy ratio (L/H ratio) of acetylated peptide, log 2 scale (GDGTGGK(ac)SIYGER (SEQ ID NO: 196), Peptidyl-prolyl cis-trans isomerase B [116], PPIB): 0.00
light to heavy ratio (L/H ratio) of acetylated peptide, log 2 scale (GFGGK(ac)YGVER (SEQ ID NO: 162), Hematopoietic lineage cell-specific protein [123], HCLS1): 0.00
light to heavy ratio (L/H ratio) of acetylated peptide, log 2 scale (GIVK(ac)DIIHDPGR (SEQ ID NO: 207), 60S ribosomal protein L8 [46], RPL8): 0.00
L/H ratio of acetylated peptide (GK(ac)LEEQRPER (SEQ ID NO: 459), Tumor protein translationally-controlled 1 [102], TPT1): −0.42 log 2
L/H ratio of acetylated peptide (GK(ac)YMLVR (SEQ ID NO: 377), Carbohydrate sulfotransferase 1 [296], CHST1): 1.00 log 2
L/H ratio of acetylated peptide (GLAPQNK(ac)PELQK (SEQ ID NO: 393), Isoform 2 of Protein FAM107B [225], FAM107B): 0.69 log 2
light to heavy ratio (L/H ratio) of acetylated peptide, log 2 scale (GLFIIDDK(ac)GILR (SEQ ID NO: 197), Peroxiredoxin-1 [136], PRDX1): 0.00
L/H ratio of acetylated peptide LVK(ac)VWNLANCK (SEQ ID NO: 39) (GNB2L1 [175], log 2 scale, drug vs DMSO): 0.00
L/H ratio of acetylated peptide IIVDELK(ac)QEVISTSSK (SEQ ID NO: 38) (GNB2L1 [271], log 2 scale, drug vs DMSO): 0.00
L/H ratio of acetylated peptide (GNTPK(ac)[…] (SEQ ID NO: 449), Nucleolar protein 56 [347], SNORD110, SNORD86, NOP56): −0.41 log 2
L/H ratio of acetylated peptide (ac)AHYNFK(ac)K (SEQ ID NO: 40) (GTPBP4 [7], log 2 scale, drug vs DMSO): 0.00
L/H ratio of acetylated peptide (GYGFGLIK(ac)LDLK (SEQ ID NO: 465), Voltage-dependent anion-selective channel protein 1 [28], VDAC1): −0.57 log 2
light to heavy ratio (L/H ratio) of acetylated peptide, log 2 scale (GYLTK(ac)EDLR (SEQ ID NO: 216), Protein S100-A10 [28], S100A10): 0.00
light to heavy ratio (L/H ratio) of acetylated peptide (ac)[…](ac)PGECLR (SEQ ID NO: 575) (Galectin-1 [13], gene LGALS1, inhibitor:DMSO): 0.00 log 2
light to heavy ratio (L/H ratio) of acetylated peptide ISGASEK(ac)[…] (SEQ ID NO: 543) (Glutamate dehydrogenase 1 mitochondrial [503], gene GLUD1, inhibitor:DMSO): 0.00 log 2
light to heavy ratio (L/H ratio) of acetylated peptide […](ac)YDNSLK (SEQ ID NO: 620) (Glyceraldehyde-3-phosphate dehydrogenase [139], gene GAPDH, inhibitor:DMSO): 0.00 log 2
light to heavy ratio (L/H ratio) of acetylated peptide VVK(ac)QASEGPLK (SEQ ID NO: 597) (Glyceraldehyde-3-phosphate dehydrogenase [263], gene GAPDH, inhibitor:DMSO): 0.00 log 2
light to heavy ratio (L/H ratio) of acetylated peptide AHLQK(ac)LMSDK (SEQ ID NO: 549) (Glycyl-tRNA synthetase [224], gene GARS, inhibitor:DMSO): 0.00 log 2
light to heavy ratio (L/H ratio), log 2 scale, acetylated peptide LLLLGAGESGK(ac)STIVK (SEQ ID NO: 769) (Guanine nucleotide-binding protein G(olf) subunit alpha [55], gene GNAL, drug:DMSO): 0.00
L/H ratio of acetylated peptide AGGK(ac)AGK(ac)DSGK (SEQ ID NO: 15) (H2AFV [5:8], log 2 scale, drug vs DMSO): 0.95
light to heavy ratio (L/H ratio) of acetylated peptide FSPDDK(ac)YSR (SEQ ID NO: 504) (H/ACA ribonucleoprotein complex subunit 3 [40], gene NOP10, inhibitor:DMSO): 0.00 log 2
L/H ratio of acetylated peptide GQQQVFK(ac)GLNDK (SEQ ID NO: 41) (HADHA [406], log 2 scale, drug vs DMSO): 0.00
L/H ratio of acetylated peptide EPVAVLK(ac)ANR (SEQ ID NO: 9) (HEXB [161], log 2 scale, drug vs DMSO): −0.40
